Assay results as given in patent US20250215039A1, “NUCLEOSIDES FOR TREATING CANCER” (PRIMEFOUR THERAPEUTICS, INC., priority 2022, published 2025).
Where two headings read alike, the source gives them in different places.

Test system: cancer cell lines
Assay: Cancer cell proliferation activity (CellTiterGlo, 72 h)
Assay type: cell-based
Settings: 72 h, 72 h, read-out: IC50 cell proliferation
Method in brief: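 Readout is CellTiterGlo luminescence after 72 h compound exposure (0.1% DMSO final), started one day post-seeding, at 37 °C.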

Nc1nc(F)nc2c1ncn2[C@@H]1O[C@H](CO)[C@@H](O)[C@H]1O [compound 184, (2R,3R,4S,5R)-2-(6-amino-2-fluoro-9H-purin-9-yl)-5-(hydroxymethyl)tetrahydrofuran-3,4-diol]
IC50 (5637 (bladder)): 190 nM | IC50 (CLS439 (bladder)): 60 nM | IC50 (HS729 (muscle)): 100 nM | IC50 (J82 (bladder)): 100 nM | IC50 (JAR (placenta)): 40 nM | IC50 (MT3 (breast)): 90 nM | IC50 (PANCI (pancreas)): 130 nM | IC50 (PC3 (prostate)): 40 nM | IC50 (RD (muscle)): 60 nM | IC50 (T24 (bladder)): 60 nM | IC50 (Homo sapiens, 22Rv1, 72 h, 22RV1 (prostate)): 220 nM | IC50 (Homo sapiens, 786-0, 72 h, 786O (kidney)): 50 nM | IC50 (Homo sapiens, A204, 72 h, A204 (muscle)): 20 nM | IC50 (Homo sapiens, A549, 72 h, A549 (lung)): 40 nM | IC50 (Homo sapiens, A673, 72 h, A673 (bone)): 270 nM | IC50 (Homo sapiens, A2780, 72 h, A2780 (ovary)): 150 nM | IC50 (Homo sapiens, A-375, 72 h, A375 (skin)): 40 nM | IC50 (Homo sapiens, A-431, 72 h, A431 (skin)): 40 nM | IC50 (Homo sapiens, ACHN, ACHN (kidney)): 20 nM | IC50 (Homo sapiens, ASPC1, 72 h, ASPC1 (pancreas)): 30 nM | IC50 (Homo sapiens, BT-20, 72 h, BT20 (breast)): 30 nM | IC50 (Homo sapiens, BXPC-3, 72 h, BXPC3 (pancreas)): 80 nM | IC50 (Homo sapiens, C-33-A, C33A (endometrial)): 50 nM | IC50 (Homo sapiens, CAKI-1, 72 h, CAKI1 (kidney)): 10 nM | IC50 (Homo sapiens, COLO 205, 72 h, COLO205 (colon)): 120 nM | IC50 (Homo sapiens, COLO-678, 72 h, COLO678 (colon)): 60 nM | IC50 (Homo sapiens, Ca-Ski, CASKI (endometrial)): 30 nM | IC50 (Homo sapiens, Caco-2, 72 h, CACO2 (colon)): 190 nM | IC50 (Homo sapiens, Calu-6, 72 h, CALU6 (lung)): 30 nM | IC50 (Homo sapiens, DLD-1, 72 h, DLD1 (colon)): 90 nM | IC50 (Homo sapiens, DU-145, 72 h, DU145 (prostate)): 20 nM | IC50 (Homo sapiens, EFO-21, 72 h, EFO21 (ovary)): 70 nM | IC50 (Homo sapiens, EJ-28, 72 h, EJ28 (bladder)): 30 nM | IC50 (Homo sapiens, Granta-519, 72 h, GRANTA-519 (hematological)): 110 nM | IC50 (Homo sapiens, HCT-15, 72 h, HCT15 (colon)): 40 nM | IC50 (Homo sapiens, HCT-116, 72 h, HCT116 (colon)): 140 nM | IC50 (Homo sapiens, HEK293, 72 h, HEK293 (kidney)): 50 nM | IC50 (Homo sapiens, HL-60, 72 h, HL-60 (hematological)): 40 nM | IC50 (Homo sapiens, HT-29, 72 h, HT29 (colon)): 70 nM | IC50 (Homo sapiens, HT-1080, 72 h, HT1080 (connective tissue)): 70 nM | IC50 (Homo sapiens, HeLa, HELA (endometrial)): 70 nM | IC50 (Homo sapiens, HepG2, 72 h, HEPG2 (liver)): 40 nM | IC50 (Homo sapiens, Hs-578T, HS578T (breast)): 80 nM | IC50 (Homo sapiens, IGROV-1, 72 h, IGROV1 (ovary)): 50 nM | IC50 (Homo sapiens, IMR-90, 72 h, IMR90 (lung)): 30 nM | IC50 (Homo sapiens, JEG-3, 72 h, JEG3 (placenta)): 40 nM | IC50 (Homo sapiens, JIMT-1, 72 h, JIMT1 (breast)): 20 nM | IC50 (Homo sapiens, K562, 72 h, K-562 (hematological)): 120 nM | IC50 (Homo sapiens, Kasumi 1, 72 h, KASUMI-1 (hematological)): 10 nM | IC50 (Homo sapiens, L-363, 72 h, L-363 (hematological)): 20 nM | IC50 (Homo sapiens, LoVo, LOVO (colon)): 20 nM | IC50 (Homo sapiens, MCF7, 72 h, MCF7 (breast)): 100 nM | IC50 (Homo sapiens, MDA-MB-231, 72 h, MDAMB231 (breast)): 40 nM | IC50 (Homo sapiens, MDA-MB-435, 72 h, MDAMB435 (skin)): 50 nM | IC50 (Homo sapiens, MDA-MB-436, 72 h, MDAMB436 (breast)): 40 nM | IC50 (Homo sapiens, MDA-MB-468, 72 h, MDAMB468 (breast)): 80 nM | IC50 (Homo sapiens, MG-63, 72 h, MG63 (bone)): 390 nM | IC50 (Homo sapiens, MHH-ES-1, 72 h, MHHES1 (bone)): 70 nM | IC50 (Homo sapiens, MIA PaCa-2, 72 h, MIAPACA2 (pancreas)): 130 nM | IC50 (Homo sapiens, MINO, MINO (hematological)): 10 nM | IC50 (Homo sapiens, MV4-11, 72 h, MV4-11 (hematological)): 20 nM | IC50 (Homo sapiens, NCI-H23, 72 h, NCI-H23 (lung)): 40 nM | IC50 (Homo sapiens, NCI-H82, 72 h, NCIH82 (lung)): 60 nM | IC50 (Homo sapiens, NCI-H292, 72 h, NCIH292 (lung)): 90 nM | IC50 (Homo sapiens, NCI-H460, 72 h, NCIH460 (lung)): 40 nM | IC50 (Homo sapiens, OVCAR-3, 72 h, OVCAR3 (ovary)): 40 nM | IC50 (Homo sapiens, OVCAR-4, 72 h, OVCAR4 (ovary)): 50 nM | IC50 (Homo sapiens, PLC-PRF-5, 72 h, PLCPRF5 (liver)): 230 nM | IC50 (Homo sapiens, Panc1005, 72 h, PANC1005 (pancreas)): 50 nM | IC50 (Homo sapiens, Ramos, RAMOS (hematological)): 140 nM | IC50 (Homo sapiens, SAOS-2, 72 h, SAOS2 (bone)): 50 nM | IC50 (Homo sapiens, SF-268, 72 h, SF268 (brain)): 160 nM | IC50 (Homo sapiens, SF-295, 72 h, SF295 (brain)): 160 nM | IC50 (Homo sapiens, SK-BR-3, 72 h, SKBR3 (breast)): 10 nM | IC50 (Homo sapiens, SK-HEP1, 72 h, SKHEP1 (liver)): 20 nM | IC50 (Homo sapiens, SK-LMS-1, 72 h, SKLMS1 (uterus)): 40 nM | IC50 (Homo sapiens, SK-MEL-5, 72 h, SKMEL5 (skin; SKMELS [sic] in Table 9E)): 50 nM | IC50 (Homo sapiens, SK-MEL-28, 72 h, SKMEL28 (skin)): 100 nM | IC50 (Homo sapiens, SK-N-AS, SKNAS (brain)): 30 nM | IC50 (Homo sapiens, SK-N-SH, SKNSH (brain)): 30 nM | IC50 (Homo sapiens, SK-OV-3, 72 h, SKOV3 (ovary)): 50 nM | IC50 (Homo sapiens, SNB-75, 72 h, SNB75 (brain)): 100 nM | IC50 (Homo sapiens, SU-DHL10, 72 h, SU-DHL-10 (hematological)): 180 nM | IC50 (Homo sapiens, SU-DHL-6, 72 h, SU-DHL-6 (hematological)): 10 nM | IC50 (Homo sapiens, SW-620, 72 h, SW620 (colon)): 30 nM | IC50 (Homo sapiens, TE-671, 72 h, TE671 (muscle)): 150 nM | IC50 (Homo sapiens, THP-1, 72 h, THP-1 (hematological)): 20 nM | IC50 (Homo sapiens, U2OS, U20S (bone; U2OS in Table 9E)): 40 nM | IC50 (Homo sapiens, U-87 MG, U87MG (brain)): 30 nM | IC50 (Homo sapiens, UMUC3, 72 h, UMUC3 (bladder)): 30 nM | IC50 (Homo sapiens, UO-31, 72 h, UO31 (kidney)): 50 nM | IC50 (Homo sapiens, WSU-NHL, WSU-NHL (hematological)): 30 nM | IC50 (NCI-H358M, NCIH358M (lung)): 70 nM | IC50 (PBMC, PBMC (hematological)): 180 nM | IC50 (RD-ES, RDES (bone)): 20 nM
